Experimental data from the supplement of paper PMC10307832.

Experiments:
Assay in all cases: relative viability (nuclei count vs DMSO), 5 days (fraction); higher = more cells survive
[1] = tested on: NCI-H647
Method in brief: (§1)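 Cells from lung cancer lines were seeded into 1536-well plates and, one day later, dosed by pin tool. Treatments were either a single drug or a fixed dose of an anchor drug with five library-drug doses (not always all listed) in √10 steps. After 5 days, nuclei were stained in a one-step fixation (final 0.05% Triton X-100, 1% formaldehyde, 1 ug/ml Hoechst) and counted on 4× images, and relative viability is the treated-to-vehicle nuclei ratio, as the median of duplicate plates.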

[2] = tested on: NCI-H358
Method in brief: as §1

[3] = tested on: NCI-H1792
Method in brief: as §1

[4] = tested on: ABC-1
Method in brief: as §1

[5] = tested on: NCI-H1975
Method in brief: as §1

[6] = tested on: NCI-H1651
Method in brief: as §1

[7] = tested on: HCC-15
Method in brief: as §1

[8] = tested on: COR-L 105
Method in brief: as §1

[9] = tested on: NCI-H2087
Method in brief: as §1

[10] = tested on: NCI-H661
Method in brief: as §1

[11] = tested on: UMC-11
Method in brief: as §1

[12] = tested on: LCLC-103H
Method in brief: as §1

[13] = tested on: 201T
Method in brief: as §1

[14] = tested on: COR-L23
Method in brief: as §1

[15] = tested on: HCC-827
Method in brief: as §1

[16] = tested on: EKVX
Method in brief: as §1

[17] = tested on: EPLC-272H
Method in brief: as §1

[18] = tested on: HCC-44
Method in brief: as §1

[19] = tested on: NCI-H1650
Method in brief: as §1

[20] = tested on: NCI-H727
Method in brief: as §1

[21] = tested on: NCI-H520
Method in brief: as §1

[22] = tested on: H3255
Method in brief: as §1

[23] = tested on: NCI-H1437
Method in brief: as §1

Structure (SMILES): O=C(O)CCCCC(CCSCc1ccccc1)SCc1ccccc1 (stereo not given) [CPI-613] + CS(=O)(=O)N1CCN(Cc2cc3nc(-c4cccc5[nH]ncc45)nc(N4CCOCC4)c3s2)CC1 [Pictilisib] (partner 1 µM)
- relative viability ([1]; first compound 5 µM): 0.58
- relative viability ([1]; first compound 15.81 µM): 0.315
- relative viability ([1]; first compound 50 µM): 0.384
- relative viability ([1]; first compound 158.11 µM): 0.424
- relative viability ([1]; first compound 500 µM): 0.412
- relative viability ([2]; first compound 5 µM): 0.355
- relative viability ([2]; first compound 15.81 µM): 0.292
- relative viability ([2]; first compound 50 µM): 0.278
- relative viability ([2]; first compound 158.11 µM): 0.255
- relative viability ([2]; first compound 500 µM): 0.0276
- relative viability ([3]; first compound 5 µM): 0.29
- relative viability ([3]; first compound 15.81 µM): 0.229
- relative viability ([3]; first compound 50 µM): 0.272
- relative viability ([3]; first compound 158.11 µM): 0.23
- relative viability ([3]; first compound 500 µM): 0.207
- relative viability ([4]; first compound 5 µM): 0.771
- relative viability ([4]; first compound 15.81 µM): 0.68
- relative viability ([4]; first compound 50 µM): 0.807
- relative viability ([4]; first compound 158.11 µM): 0.384
- relative viability ([4]; first compound 500 µM): 0.246
- relative viability ([5]; first compound 5 µM): 0.292
- relative viability ([5]; first compound 15.81 µM): 0.225
- relative viability ([5]; first compound 50 µM): 0.314
- relative viability ([5]; first compound 158.11 µM): 0.258
- relative viability ([5]; first compound 500 µM): 0.0574
- relative viability ([6]; first compound 5 µM): 0.591
- relative viability ([6]; first compound 15.81 µM): 0.504
- relative viability ([6]; first compound 50 µM): 0.572
- relative viability ([6]; first compound 158.11 µM): 0.331
- relative viability ([6]; first compound 500 µM): 0.0986
- relative viability ([7]; first compound 5 µM): 0.604
- relative viability ([7]; first compound 15.81 µM): 0.664
- relative viability ([7]; first compound 50 µM): 0.603
- relative viability ([7]; first compound 158.11 µM): 0.629
- relative viability ([7]; first compound 500 µM): 0.238
- relative viability ([8]; first compound 5 µM): 0.399
- relative viability ([8]; first compound 15.81 µM): 0.377
- relative viability ([8]; first compound 50 µM): 0.38
- relative viability ([8]; first compound 158.11 µM): 0.328
- relative viability ([8]; first compound 500 µM): 0.288
- relative viability ([9]; first compound 5 µM): 0.87
- relative viability ([9]; first compound 15.81 µM): 0.702
- relative viability ([9]; first compound 50 µM): 0.733
- relative viability ([9]; first compound 158.11 µM): 0.587
- relative viability ([9]; first compound 500 µM): 0.0127
- relative viability ([10]; first compound 5 µM): 0.36
- relative viability ([10]; first compound 15.81 µM): 0.428
- relative viability ([10]; first compound 50 µM): 0.442
- relative viability ([10]; first compound 158.11 µM): 0.355
- relative viability ([10]; first compound 500 µM): 0.367
- relative viability ([11]; first compound 5 µM): 0.804
- relative viability ([11]; first compound 15.81 µM): 0.698
- relative viability ([11]; first compound 50 µM): 0.496
- relative viability ([11]; first compound 158.11 µM): 0.642
- relative viability ([11]; first compound 500 µM): 0.104
- relative viability ([12]; first compound 5 µM): 0.55
- relative viability ([12]; first compound 15.81 µM): 0.578
- relative viability ([12]; first compound 50 µM): 0.581
- relative viability ([12]; first compound 158.11 µM): 0.539
- relative viability ([12]; first compound 500 µM): 0.653
- relative viability ([13]; first compound 5 µM): 0.722
- relative viability ([13]; first compound 15.81 µM): 0.654
- relative viability ([13]; first compound 50 µM): 0.667
- relative viability ([13]; first compound 158.11 µM): 0.665
- relative viability ([13]; first compound 500 µM): 0.647
- relative viability ([14]; first compound 5 µM): 0.639
- relative viability ([14]; first compound 15.81 µM): 0.689
- relative viability ([14]; first compound 50 µM): 0.621
- relative viability ([14]; first compound 158.11 µM): 0.393
- relative viability ([14]; first compound 500 µM): 0.007
- relative viability ([15]; first compound 5 µM): 0.94
- relative viability ([15]; first compound 15.81 µM): 0.964
- relative viability ([15]; first compound 50 µM): 0.887
- relative viability ([15]; first compound 158.11 µM): 0.833
- relative viability ([15]; first compound 500 µM): 0.79
- relative viability ([16]; first compound 5 µM): 0.43
- relative viability ([16]; first compound 15.81 µM): 0.451
- relative viability ([16]; first compound 50 µM): 0.509
- relative viability ([16]; first compound 158.11 µM): 0.415
- relative viability ([16]; first compound 500 µM): 0.406
- relative viability ([17]; first compound 5 µM): 0.251
- relative viability ([17]; first compound 15.81 µM): 0.28
- relative viability ([17]; first compound 50 µM): 0.369
- relative viability ([17]; first compound 158.11 µM): 0.246
- relative viability ([17]; first compound 500 µM): 0.339
- relative viability ([18]; first compound 5 µM): 0.546
- relative viability ([18]; first compound 15.81 µM): 0.611
- relative viability ([18]; first compound 50 µM): 0.589
- relative viability ([18]; first compound 158.11 µM): 0.469
- relative viability ([18]; first compound 500 µM): 0.0534
- relative viability ([19]; first compound 5 µM): 0.597
- relative viability ([19]; first compound 15.81 µM): 0.477
- relative viability ([19]; first compound 50 µM): 0.638
- relative viability ([19]; first compound 158.11 µM): 0.109
- relative viability ([19]; first compound 500 µM): 0.0271
- relative viability ([20]; first compound 5 µM): 0.359
- relative viability ([20]; first compound 15.81 µM): 0.348
- relative viability ([20]; first compound 50 µM): 0.348
- relative viability ([20]; first compound 158.11 µM): 0.33
- relative viability ([20]; first compound 500 µM): 0.0223
- relative viability ([21]; first compound 5 µM): 0.271
- relative viability ([21]; first compound 15.81 µM): 0.279
- relative viability ([21]; first compound 50 µM): 0.286
- relative viability ([21]; first compound 158.11 µM): 0.172
- relative viability ([21]; first compound 500 µM): 0.134
- relative viability ([22]; first compound 5 µM): 0.512
- relative viability ([22]; first compound 15.81 µM): 0.462
- relative viability ([22]; first compound 50 µM): 0.452
- relative viability ([22]; first compound 158.11 µM): 0.472
- relative viability ([22]; first compound 500 µM): 0.43
- relative viability ([23]; first compound 5 µM): 0.433
- relative viability ([23]; first compound 15.81 µM): 0.286
- relative viability ([23]; first compound 50 µM): 0.435
- relative viability ([23]; first compound 158.11 µM): 0.181
- relative viability ([23]; first compound 500 µM): 0.0176
